What follows are compounds tested against T1, PI3Kδ (Homo sapiens, UniProt O00329) (assay: PI3Kδ inhibition, modified PIK3CD Adapta TR-FRET assay). Settings: recombinant GST-tagged full length PIK3CD co-expressed with PIK3R1 (p85α); 2 μM ATP, 50 μM PIP2; read-out: PI3Kδ Inhibition (pIC50) (converted).
T1 construct: The protein is full length and co-expressed with untagged PIK3R1; GST; purchased Invitrogen PV5274
Format: biochemical
Method in brief: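 Inhibition was derived from % conversion against positive and negative controls, with ADP read by Adapta Eu-antibody/tracer TR-FRET. Room-temperature reactions used GST-PIK3CD/p85α in HEPES pH 7.5 buffer (MgCl2, EGTA, NaCl, CHAPS, fresh DTT), 1% DMSO final and 12 concentrations. They were initiated by adding 2 μM ATP/50 μM PIP2 solution.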

T1 sequence (O00329 whole entry): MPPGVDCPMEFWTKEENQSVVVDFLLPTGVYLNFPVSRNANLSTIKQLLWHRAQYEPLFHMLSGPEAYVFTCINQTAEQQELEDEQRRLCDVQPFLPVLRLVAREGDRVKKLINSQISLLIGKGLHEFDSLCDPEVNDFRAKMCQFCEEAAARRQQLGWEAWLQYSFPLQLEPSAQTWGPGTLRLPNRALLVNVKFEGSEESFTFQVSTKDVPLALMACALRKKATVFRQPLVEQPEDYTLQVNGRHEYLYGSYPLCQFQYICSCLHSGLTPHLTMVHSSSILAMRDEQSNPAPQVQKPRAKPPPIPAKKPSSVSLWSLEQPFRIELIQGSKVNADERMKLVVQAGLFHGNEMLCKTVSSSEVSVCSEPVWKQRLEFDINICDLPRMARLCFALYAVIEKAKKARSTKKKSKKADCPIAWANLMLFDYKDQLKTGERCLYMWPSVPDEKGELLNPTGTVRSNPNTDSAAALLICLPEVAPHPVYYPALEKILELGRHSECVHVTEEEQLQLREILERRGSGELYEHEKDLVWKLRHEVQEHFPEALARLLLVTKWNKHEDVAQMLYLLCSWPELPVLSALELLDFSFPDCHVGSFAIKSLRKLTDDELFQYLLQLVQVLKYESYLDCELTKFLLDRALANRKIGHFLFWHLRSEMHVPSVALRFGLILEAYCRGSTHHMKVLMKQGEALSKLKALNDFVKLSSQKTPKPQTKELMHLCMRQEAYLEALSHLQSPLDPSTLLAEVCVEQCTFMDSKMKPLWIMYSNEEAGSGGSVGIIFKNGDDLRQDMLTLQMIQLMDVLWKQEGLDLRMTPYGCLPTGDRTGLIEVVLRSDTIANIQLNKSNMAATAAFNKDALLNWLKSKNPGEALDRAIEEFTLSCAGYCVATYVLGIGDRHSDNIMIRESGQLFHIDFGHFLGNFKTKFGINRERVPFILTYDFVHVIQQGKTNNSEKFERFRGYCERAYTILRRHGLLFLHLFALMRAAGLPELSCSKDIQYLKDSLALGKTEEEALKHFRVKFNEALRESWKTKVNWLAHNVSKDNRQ
T1 sequence (P27986 whole entry partner): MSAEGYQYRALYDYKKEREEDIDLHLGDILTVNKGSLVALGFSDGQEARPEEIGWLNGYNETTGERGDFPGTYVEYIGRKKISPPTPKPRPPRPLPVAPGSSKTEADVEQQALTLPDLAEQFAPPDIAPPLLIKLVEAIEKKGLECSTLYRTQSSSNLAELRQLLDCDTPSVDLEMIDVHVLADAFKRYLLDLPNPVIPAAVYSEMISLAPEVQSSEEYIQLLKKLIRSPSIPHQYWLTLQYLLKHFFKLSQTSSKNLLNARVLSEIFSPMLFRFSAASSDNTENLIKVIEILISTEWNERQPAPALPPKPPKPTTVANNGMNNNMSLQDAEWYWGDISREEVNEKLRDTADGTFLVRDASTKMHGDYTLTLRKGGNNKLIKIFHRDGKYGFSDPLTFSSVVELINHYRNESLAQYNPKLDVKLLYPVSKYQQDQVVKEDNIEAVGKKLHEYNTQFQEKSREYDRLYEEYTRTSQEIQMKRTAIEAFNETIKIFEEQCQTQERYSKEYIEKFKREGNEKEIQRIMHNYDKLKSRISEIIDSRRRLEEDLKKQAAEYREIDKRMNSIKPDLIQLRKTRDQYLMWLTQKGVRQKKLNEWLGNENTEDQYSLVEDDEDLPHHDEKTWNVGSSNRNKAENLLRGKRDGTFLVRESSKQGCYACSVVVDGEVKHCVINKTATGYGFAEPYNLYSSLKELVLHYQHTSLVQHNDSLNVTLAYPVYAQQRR

Row | IC50 [µM] | Structure (SMILES)
1 | 0.0398 | CS(=O)(=O)c1ccc(CN2CC3COCCN3c3nc(-c4ccc(F)c5[nH]ccc45)ncc32)cc1 (stereo not drawn) [Example 17, 2-(7-fluoro-1H-indol-4-yl)-5-(4-(methylsulfonyl)benzyl)-5,6,6a,7,9,10-hexahydro-[1,4]oxazino[3,4-h]pteridine]
2 | 0.0631 | CNC(=O)Nc1ccc(-c2ncc3c(n2)N2CCOCC2C(=O)N3Cc2ccc(Cl)cc2)cc1 (stereo not drawn) [Example 89, 1-(4-(5-(4-chlorobenzyl)-6-oxo-5,6,6a,7,9,10-hexahydro-[1,4]oxazino[3,4-h]pteridin-2-yl)phenyl)-3-methylurea]
3 | 0.794 | O=C(CN1C[C@@H]2COCCN2c2nc(-c3cccc(OC(F)F)c3)ncc21)NCC1CCOCC1 [Example 217, (R)-2-(2-(3-(difluoromethoxy)phenyl)-6a,7,9,10-tetrahydro-[1,4]oxazino[3,4-h]pteridin-5(6H)-yl)-N-((tetrahydro-2H-pyran-4-yl)methyl)acetamide]
4 | 0.0316 | O=C(Nc1ccc(-c2ncc3c(n2)N2CCOCC2C(=O)N3C2CCOCC2)cc1)NC1CC1 (stereo not drawn) [Example 229, 1-cyclopropyl-3-(4-(6-oxo-5-(tetrahydro-2H-pyran-4-yl)-5,6,6a,7,9,10-hexahydro-[1,4]oxazino[3,4-h]pteridin-2-yl)phenyl)urea]
5 | 0.398 | CN(C)C(=O)CN1CC2COCCN2c2nc(-c3cccc4[nH]ccc34)ncc21 (stereo not drawn) [Example 43, 2-(2-(1H-indol-4-yl)-6a,7,9,10-tetrahydro-[1,4]oxazino[3,4-h]pteridin-5(6H)-yl)-N,N-dimethylacetamide]
6 | 0.0316 | O=C1C2COCCN2c2nc(-c3cccc4[nH]ccc34)ncc2N1C1CCc2ccc(Cl)cc21 (stereo not drawn) [Example 146, 5-(6-chloro-2,3-dihydro-1H-inden-1-yl)-2-(1H-indol-4-yl)-6a,7,9,10-tetrahydro-[1,4]oxazino[3,4-h]pteridin-6(5H)-one]
7 | 0.00251 | CNC(=O)Nc1ccc(-c2ncc3c(n2)N2CCOC[C@@H]2C(=O)N3C2CCOCC2)cc1 [Example 159, (R)-1-methyl-3-(4-(6-oxo-5-(tetrahydro-2H-pyran-4-yl)-5,6,6a,7,9,10-hexahydro-[1,4]oxazino[3,4-h]pteridin-2-yl)phenyl)urea]
8 | 0.00631 | CNC(=O)Nc1ccc(-c2ncc3c(n2)N2CCOCC2C(=O)N3Cc2ccc(C(=O)OC)cc2)cc1 (stereo not drawn) [Example 88, methyl 4-((2-(4-(3-methylureido)phenyl)-6-oxo-6a,7,9,10-tetrahydro-[1,4]oxazino[3,4-h]pteridin-5(6H)-yl)methyl)benzoate]
9 | 0.0316 | Nc1ncc(-c2ncc3c(n2)N2CCOCC2CN3)cn1 (stereo not drawn) [Example 1, 5-(5,6,6a,7,9,10-hexahydro-[1,4]oxazino[3,4-h]pteridin-2-yl)pyrimidin-2-amine]
10 | > 10 | COc1ccc2c(-c3ncc4c(n3)N3CCOCC3CN4)c[nH]c2c1 (stereo not drawn) [Example 8, 2-(6-methoxy-1H-indol-3-yl)-5,6,6a,7,9,10-hexahydro-[1,4]oxazino[3,4-h]pteridine]
11 | 0.00398 | CS(=O)(=O)c1ccc(CN2CC3COCCN3c3nc(-c4cnc(N)nc4)ncc32)cc1 (stereo not drawn) [Example 4, 5-(5-(4-(methylsulfonyl)benzyl)-5,6,6a,7,9,10-hexahydro-[1,4]oxazino[3,4-h]pteridin-2-yl)pyrimidin-2-amine]
12 | 0.00794 | CC(C)(O)CCN1C[C@@H]2COCCN2c2nc(-c3cccc4[nH]ccc34)ncc21 [Example 169, (R)-4-(2-(1H-indol-4-yl)-6a,7,9,10-tetrahydro-[1,4]oxazino[3,4-h]pteridin-5(6H)-yl)-2-methylbutan-2-ol]
13 | 0.00158 | CC(C)Cc1nnc(C(C)N2C[C@@H]3COCCN3c3nc(-c4cccc5[nH]ccc45)ncc32)o1 (stereo partly drawn) [Example 175, (6aR)-2-(1H-indol-4-yl)-5-(1-(5-isobutyl-1,3,4-oxadiazol-2-yl)ethyl)-5,6,6a,7,9,10-hexahydro-[1,4]oxazino[3,4-h]pteridine]
14 | 0.00794 | CCc1nnc(CN2C[C@@H]3COCCN3c3nc(-c4cccc5[nH]ccc45)ncc32)o1 [Example 31, (R)-5-((5-ethyl-1,3,4-oxadiazol-2-yl)methyl)-2-(1H-indol-4-yl)-5,6,6a,7,9,10-hexahydro-[1,4]oxazino[3,4-h]pteridine]
15 | 0.0501 | NC(=O)c1ccc(F)c(CN2CC3COCCN3c3nc(-c4cccc5[nH]ccc45)ncc32)c1 (stereo not drawn) [Example 77, 3-((2-(1H-indol-4-yl)-6a,7,9,10-tetrahydro-[1,4]oxazino[3,4-h]pteridin-5(6H)-yl)methyl)-4-fluorobenzamide]
16 | 0.00631 | CC(C)(O)CCN1C[C@@H]2COCCN2c2nc(-c3cncc4[nH]ccc34)ncc21 [Example 170, (R)-4-(2-(1H-pyrrolo[2,3-c]pyridin-4-yl)-6a,7,9,10-tetrahydro-[1,4]oxazino[3,4-h]pteridin-5(6H)-yl)-2-methylbutan-2-ol]
17 | 0.251 | O=C(Cc1ccsc1)N1CC2COCCN2c2nc(-c3cccc4[nH]ccc34)ncc21 (stereo not drawn) [Example 51, 1-(2-(1H-indol-4-yl)-6a,7,9,10-tetrahydro-[1,4]oxazino[3,4-h]pteridin-5(6H)-yl)-2-(thiophen-3-yl)ethanone]

Row | IC50 [µM] | Structure (SMILES)
18 | 0.398 | Cc1ccc(S(=O)(=O)N2CC3COCCN3c3nc(-c4cccc5[nH]ccc45)ncc32)cc1 (stereo not drawn) [Example 18, 2-(1H-indol-4-yl)-5-tosyl-5,6,6a,7,9,10-hexahydro-[1,4]oxazino[3,4-h]pteridine]
19 | 0.0126 | COc1cncc(N2C[C@@H]3COCCN3c3nc(-c4cccc5[nH]ccc45)ncc32)c1 [Example 201, (R)-2-(1H-indol-4-yl)-5-(5-methoxypyridin-3-yl)-5,6,6a,7,9,10-hexahydro-[1,4]oxazino[3,4-h]pteridine]
20 | 0.00794 | CS(=O)(=O)c1ccc(CN2C(=O)C3COCCN3c3nc(-c4ccc(N)nc4)ncc32)cc1 (stereo not drawn) [Example 106, 2-(6-aminopyridin-3-yl)-5-(4-(methylsulfonyl)benzyl)-6a,7,9,10-tetrahydro-[1,4]oxazino[3,4-h]pteridin-6(5H)-one]
21 | 0.0126 | c1ccc(-c2nnc(CN3CC4COCCN4c4nc(-c5cccc6[nH]ccc56)ncc43)o2)cc1 (stereo not drawn) [Example 38, 2-(1H-indol-4-yl)-5-((5-phenyl-1,3,4-oxadiazol-2-yl)methyl)-5,6,6a,7,9,10-hexahydro-[1,4]oxazino[3,4-h]pteridine]
22 | 0.501 | O=C(CN1C[C@@H]2COCCN2c2nc(-c3ccc(CO)s3)ncc21)NCC1CCOCC1 [Example 226, (R)-2-(2-(5-(hydroxymethyl)thiophen-2-yl)-6a,7,9,10-tetrahydro-[1,4]oxazino[3,4-h]pteridin-5(6H)-yl)-N-((tetrahydro-2H-pyran-4-yl)methyl)acetamide]
23 | 0.126 | Cc1n[nH]cc1-c1ncc2c(n1)N1CCOCC1C(=O)N2Cc1ccc(S(C)(=O)=O)cc1 (stereo not drawn) [Example 130]
24 | 0.794 | c1cc(-c2ncc3c(n2)N2CCOC[C@H]2CN3c2cccc3[nH]ccc23)c2cc[nH]c2c1 [Example 193, (R)-2,5-di(1H-indol-4-yl)-5,6,6a,7,9,10-hexahydro-[1,4]oxazino[3,4-h]pteridine]
25 | 0.00316 | c1cc(-c2ncc3c(n2)N2CCOC[C@H]2CN3CCC2OCCO2)c2cc[nH]c2c1 [Example 194, (R)-5-(2-(1,3-dioxolan-2-yl)ethyl)-2-(1H-indol-4-yl)-5,6,6a,7,9,10-hexahydro-[1,4]oxazino[3,4-h]pteridine]
26 | > 10 | CS(=O)(=O)c1ccc(CN2C(=O)C3COCCN3c3nc(-c4cc(N)ccn4)ncc32)cc1 (stereo not drawn) [Example 141, 2-(4-aminopyridin-2-yl)-5-(4-(methylsulfonyl)benzyl)-6a,7,9,10-tetrahydro-[1,4]oxazino[3,4-h]pteridin-6(5H)-one]
27 | 0.00316 | COC(=O)CCCN1C[C@@H]2COCCN2c2nc(-c3cccc4[nH]ccc34)ncc21 [Example 195, (R)-methyl 4-(2-(1H-indol-4-yl)-6a,7,9,10-tetrahydro-[1,4]oxazino[3,4-h]pteridin-5(6H)-yl)butanoate]
28 | 7.94 | CS(=O)(=O)c1ccc(CN2C(=O)C3COCCN3c3nc(-c4cccc(NS(=O)(=O)C5CC5)c4)ncc32)cc1 (stereo not drawn) [Example 120, N-(3-(5-(4-(methylsulfonyl)benzyl)-6-oxo-5,6,6a,7,9,10-hexahydro-[1,4]oxazino[3,4-h]pteridin-2-yl)phenyl)cyclopropanesulfonamide]
29 | 0.0316 | NC(=O)c1cccc(CN2CC3COCCN3c3nc(-c4cccc5[nH]ccc45)ncc32)c1 (stereo not drawn) [Example 76, 3-((2-(1H-indol-4-yl)-6a,7,9,10-tetrahydro-[1,4]oxazino[3,4-h]pteridin-5(6H)-yl)methyl)benzamide]
30 | 0.00316 | CC(C)(O)CCN1C[C@@H]2COCCN2c2nc(-c3cccc(CO)c3)ncc21 [Example 171, (R)-4-(2-(3-(hydroxymethyl)phenyl)-6a,7,9,10-tetrahydro-[1,4]oxazino[3,4-h]pteridin-5(6H)-yl)-2-methylbutan-2-ol]
31 | 0.00501 | O=C1Nc2cnc(-c3cccc4[nH]ccc34)nc2N2CCOC[C@@H]12 (single isomer, unassigned) [Example 150]
32 | 0.398 | O=C(CN1C[C@@H]2COCCN2c2nc(-c3cccc4[nH]ccc34)ncc21)Nc1ccncc1 [Example 203, (R)-2-(2-(1H-indol-4-yl)-6a,7,9,10-tetrahydro-[1,4]oxazino[3,4-h]pteridin-5(6H)-yl)-N-(pyridin-4-yl)acetamide]
33 | 1.58 | Cn1nccc1-c1ncc2c(n1)N1CCOC[C@H]1CN2CC(=O)NCC1CCOCC1 [Example 225, (R)-2-(2-(1-methyl-1H-pyrazol-5-yl)-6a,7,9,10-tetrahydro-[1,4]oxazino[3,4-h]pteridin-5(6H)-yl)-N-((tetrahydro-2H-pyran-4-yl)methyl)acetamide]

Reference: patent publication US8791107B2, “N-substituted oxazinopteridines and oxazinopteridinones” (Takeda Pharmaceutical Company Limited, priority 2011, dated 2014)
